Entries after “also recorded” stand apart in the source; their conditions may differ. Like-named read-outs stand apart in the source and are kept apart here.
Tests used:
[1] = tested on: lipid metabolism; assay: Effects of diphosphonates on lipid metabolism in normal rats (serum lipids, α/β cholesterol); type: in vivo, male Wistar rats; conditions: for Serum Chol. α/β (% control values) / Serum Free Fatty Acids (% control values) / Serum Phospholipids (% control values) / Serum Triglycerides (% control values) / change in vivo at 200 mg/kg/day: normal rats (N), 200 mg/kg/day p.o.; for increased HDL lipids, especially HDL cholesterol: normal rats; for change in vivo at 200 mg/kg/day: Rattus norvegicus, po
Description: Effects of diphosphonates of formula (I) on lipid metabolism in normal rats Groups of 4 to 5 normal male Wistar rats, weighing about 200 g were treated with diphosphonates (200 mg/kg/day) p.o. for 4 to 21 days. Water soluble compounds were given in solution in 24 mM bicarbonate buffer. Lipid soluble compounds were given in corn oil. The rats were weighed, sacrificed by decapitation (under light ether anesthesia) after overnight fasting. Blood was collected and serum used for analysis. The following blood parameters reflecting changes in lipid metabolism are reported: […]
free fatty acids measured according to W. G. Duncombe (Clin. Acta 9, 122, 1964) triglycerides enzymatic method (Boehringer Mannheim Kit 126 012) phospholipids: molybdate/vanadate reaction (Boehringer Mannheim Kit 124 974) β-lipoprotein cholesterol was measured after heparin, CaCl2 precipitation according to M. Burstein et al. (La Presse Medicale 43, 974, 1958) and to D. Watson (Clin. Chim. Acta 5, 637, 1960).
(§1) In above Table IV, results are given as % control values. Except for serum calcium, values which differ from control values by less than 15% are considered as non significant (NS).
Serum free fatty acids, triglycerides and phospholipids were measured in normal rats (N) and rats previously fed a cholesterol diet for 10 days (C.F.) Serum α/β cholesterol, total lipids and cholesterol of liver and aorta were determined in normal rats (N) and rats which had previously been fed on high cholesterol diet (C.F.)

[2] = tested on: tissue cholesterol; assay: Effects in cholesterol fed rats (serum, liver and aorta lipids); type: in vivo
Description: Effects of diphosphonates of formula (I) in cholesterol fed rats
In order to increase tissue cholesterol, especially liver, rats were fed a high fat-high cholesterol diet for 10 days to 3 months, with the following diet composition: casein 20%, butter 37%, cellulose 9.1%, dextrose 18,9%, cholesterol 4.5%, sodium cholate 1.8%, minerals 7.3%, vitamins 1%, choline 0.4%.
The rats were then fed normal food and were treated for 10 days to 3 months with different compounds (200 mg/kg/day). Serum parameters described above were measured. Liver and aorta lipids were extracted according to J. Folch et al (J. Biochem. 226, 497, 1957). Total lipids were determined by the sulfophosphovanillic reaction (see N. Zolner and K. Kirsch, Z. Ges. exp. Med. 135, 545, 1962) and cholesterol by the Liebermann-Burchard reaction or appropriate enzymatic reaction.
as §1
Serum free fatty acids, triglycerides and phospholipids were measured in normal rats (N) and rats previously fed a cholesterol diet for 10 days (C.F.)
Serum α/β cholesterol, total lipids and cholesterol of liver and aorta were determined in normal rats (N) and rats which had previously been fed on high cholesterol diet (C.F.)

[3] = cholesterol fed rats (C.F), 200 mg/kg/day
[4] = read-out: Serum Chol. α/β (% control values)
[5] = read-out: Serum Phospholipids (% control values)
[6] = read-out: Serum Triglycerides (% control values)

Row | SMILES | increased HDL lipids, especially HDL cholesterol [1] | increase in serum phospholipid ([1]; rats) | α-cholesterol/β-cholesterol ratio / lipoprotein cholesterol ([1]; rats) | change in vivo at 200 mg/kg/day [1, 4] [%] | change in vivo at 200 mg/kg/day [1, 5] [%] | change in vivo at 200 mg/kg/day [1, 6] [%] | other results
1 | COP(=O)(OC)C(O)(C(C)(C)C)P(=O)(OC)OC [Compound 1] | – | – | – | – | – | – | Serum Chol. α/β (% control values) [1]: NS (Except for serum calcium, values which differ from control values by less than 15% are considered as non significant (NS)); Serum Free Fatty Acids (% control values) [1]: NS (Except for serum calcium, values which differ from control values by less than 15% are considered as non significant (NS)); Serum Phospholipids (% control values) [1]: -43%; Serum Triglycerides (% control values) [1]: +24%; property to change lipid metabolism / increase HDL ([1]; rats): do not have these properties
2 | COP(=O)(OC)C(O)(c1ccccc1)P(=O)(OC)OC [Compound 2] | observed most dramatically | found to increase | highly significant activity | – | – | – | Serum Free Fatty Acids (% control values) [1]: NS (Except for serum calcium, values which differ from control values by less than 15% are considered as non significant (NS)); Serum Phospholipids (% control values) [1]: +25%; Serum Triglycerides (% control values) [1]: -21%; decreases in serum triglycerides ([1]; rats): Significant decreases; liver total lipids and/or liver cholesterol ([2]; cholesterol fed rats): decreased significantly; Aorta Chol. (% control values) [2, 3]: NS (Except for serum calcium, values which differ from control values by less than 15% are considered as non significant (NS)); Aorta Total Lipids (% control values) [2, 3]: -30%; Liver Chol. (% control values) [2, 3]: -50%; Liver Total Lipids (% control values) [2, 3]: -24%; Serum Chol. α/β (% control values) [2, 3]: +88%; Serum Free Fatty Acids (% control values) [2, 3]: -56%; Serum Phospholipids (% control values) [2, 3]: NS (Except for serum calcium, values which differ from control values by less than 15% are considered as non significant (NS)); Serum Triglycerides (% control values) [2, 3]: -15%
3 | COP(=O)(OC)C(O)(c1ccc(C)cc1)P(=O)(OC)OC [Compound 3] | – | – | – | < 15 | < 15 | < 15 | change in vivo at 200 mg/kg/day ([1]; read-out: Serum Free Fatty Acids (% control values)): < 15%
4 | COP(=O)(OC)C(O)(c1ccc(F)cc1)P(=O)(OC)OC [Compound 5] | observed most dramatically | – | highly significant activity | 64 | – | 27 | –
5 | COP(=O)(OC)OC(C1CCCCC1)P(=O)(OC)OC (stereo not shown) [Compound 12] | – | – | – | – | – | – | Serum Chol. α/β (% control values) [1]: NS (Except for serum calcium, values which differ from control values by less than 15% are considered as non significant (NS)); Serum Phospholipids (% control values) [1]: NS (Except for serum calcium, values which differ from control values by less than 15% are considered as non significant (NS)); Serum Triglycerides (% control values) [1]: -46%; decreases in serum triglycerides ([1]; rats): Significant decreases
6 | COP(=O)(OC)OC(c1ccccc1Cl)P(=O)(OC)OC (stereo not shown) [Compound 14] | – | – | – | 34 | 22 | -42 | –
7 | COP(=O)(OC)OC(c1cccc(Cl)c1)P(=O)(OC)OC (stereo not shown) [Compound 15] | observed most dramatically | – | highly significant activity | 69 | < 15 | -37 | –
8 | COP(=O)(OC)OC(c1ccc(F)cc1)P(=O)(OC)OC (stereo not shown) [Compound 17] | observed most dramatically | – | highly significant activity | 81 | < 15 | < 15 | –
9 | COP(=O)(OC)OC(c1cc(C)ccc1C)P(=O)(OC)OC (stereo not drawn) [Compound 19, Dimethyl α-(dimethoxyphosphinyl)2,5-dimethylbenzyl phosphate] | – | – | – | 15 | < 15 | < 15 | decreases in serum triglycerides ([1]; rats): Significant decreases
10 | COP(=O)(OC)OC(C(C)(C)c1ccccc1)P(=O)(OC)OC (stereo not shown) [Compound 20] | – | found to increase | – | 25 | 15 | 36 | –
11 | COP(=O)(OC)OC(C(C)(C)Cc1ccc(Cl)cc1)P(=O)(OC)OC (stereo not shown) [Compound 22] | – | – | – | -38 | < 15 | -19 | –
12 | COP(=O)(OC)OC(c1ccc(C(=O)c2ccc(Cl)cc2)cc1)P(=O)(OC)OC (stereo not drawn) [Compound 23, Dimethyl [α-(dimethoxyphosphinyl) 4-(4'-chlorobenzoyl)]benzyl phosphate] | observed most dramatically | found to increase; also recorded: at least two fold the most active | highly significant activity | 55 | 53 | < 15 | –
13 | CCCCOP(=O)(OCCCC)OC(c1ccc(Cl)cc1)P(=O)(OCCCC)OCCCC (stereo not shown) [Compound 25] | – | – | – | – | – | – | Serum Chol. α/β (% control values) [1]: NS (Except for serum calcium, values which differ from control values by less than 15% are considered as non significant (NS)); Serum Phospholipids (% control values) [1]: NS (Except for serum calcium, values which differ from control values by less than 15% are considered as non significant (NS)); Serum Triglycerides (% control values) [1]: NS (Except for serum calcium, values which differ from control values by less than 15% are considered as non significant (NS))
14 | CCOP(=O)(OCC)C(CCCc1ccccc1)P(=O)(OCC)OCC [Compound 29, Tetraethyl 4-phenylbutylidene 1,1-diphosphonate] | – | found to increase | – | 33 | 17 | 46 | –
15 | COP(=O)(OC)C(CCCc1ccccc1)P(=O)(OC)OC [Compound 37, Tetramethyl 4-phenylbutylidene 1,1-diphosphonate] | observed most dramatically | found to increase | highly significant activity | 49 | 33 | 42 | –

— US4416877A, “Anti-atherosclerotic pharmaceutical compositions containing diphosphonate compounds” (priority 1979, dated 1983)
